“Also recorded” adds a separate entry of the source.
Test system: patients with ET
Test: Randomized withdrawal sub-study / blinded 6-week crossover period of the Phase 2 extension
Format: in vivo, human
From the text: At the re-randomization visit for the cross-over period, and every 7 days in that portion of the study, the treatment regimen was assigned by the IRT and dispensed by site pharmacist for direct-to-patient (DTP) shipping. In the cross-over period of the trial, all participants were centrally assigned to randomize to remain on the current regimen of Compound 1 or placebo using an IRT. After 3 weeks, participants receiving placebo were switched over to Compound 1 following the regimen described in Table 3. The IRT assigned treatment regimen based on the Tetras ADL response criteria after day 7.
The open-label protocol was amended to further assess the criteria to be used in the upcoming randomized withdrawal study in Phase 3 (as described in Example 3). In this sub-study, patients were re-randomized in a blinded-fashion to either receive placebo or continue to receive Compound 1. Twenty-one patients who completed assessments at week 14 of the Open Label Extension were eligible to participate in the blinded sub-study.
Patients were evaluated weekly over a total of 6 weeks, with 11 patients assigned to Compound 1 and 10 patients assigned to placebo for the initial 3-week period, crossing over to either placebo or Compound 1 for an additional 3-week period. Blinded rescue was triggered for patients on placebo if loss in the mADL11 exceeded 2 points at any timepoint.
The results of the Phase 2 trials with ulixacaltamie (see Examples 1 and 2) support the efficacy and safety of ulixacaltamide in patients with ET. […] In the double-blind (DB) portion of the Phase 2 study, the rescored TETRAS-ADL items 1-11 (mADL11) score decreased more in participants randomized to Compound 1 compared with placebo after 56 days of dosing, with least square mean (LSM standard error [SE]) scores of ([…] [0.81]) compared with placebo (−0.87 [0.95]). The LSM (95% confidence interval [CI]) treatment difference was −1.82 (95% CI: −3.565, −0.066; with a nominal p value of <0.05). In the Phase 2 extension period, 20 participants completed a blinded 6-week crossover period. Participants were randomized in blinded fashion to either 3 weeks of Compound 1 60 mg or placebo. Rescue treatment (Compound 1) was offered to participants if their mADL11 worsened by a preset threshold. […] None of the Compound 1-treated participants and 9 of 21 placebo-treated participants qualified for and received rescue treatment within the 3-week period.

[1] = patients who switched from Compound 1 to placebo

Question: What does the source list for `CC(C)(C)NC(=O)CN1CCC(CNC(=O)c2cc(F)cc(Cl)c2)CC1` [Compound 1, N-((1-(2-(tert-butylamino)-2-oxoethyl)piperidin-4-yl)methyl)-3-chloro-5-fluorobenzamide]?
Answer: Patients who maintained their mADL11 within 3-points compared to baseline (52% on placebo): 85%; Participants with maintenance of response (crossover period, Compound 1 60 mg, 11 of 21 on placebo): 17 of 20; Safety signals (in vivo): No new safety signals emerged; also recorded: No new safety signal was identified; Average loss of effect in mADL11 per week [1]: 47%; Mean loss of effect in mADL11 [1]: −1.15 points/week; Improvement in global mean change in mADL11 per week (periods receiving Compound 1): 6%; Mean improvement in mADL11 (periods receiving Compound 1): 0.16 points/week; Participants who qualified for and received rescue treatment (within the 3-week period, 9 of 21 on placebo): None

From patent US20250387382A1, “METHODS OF TREATING ESSENTIAL TREMOR” (Praxis Precision Medicines, Inc., priority 2023, published 2025)
